From paper PMC8233319, “Protein mimetic amyloid inhibitor potently abrogates cancer-associated mutant p53 aggregation and restores tumor suppressor function” (Nature Communications, 2021)

Assays:
p53 (mutant R175H) = target: T1, p53 (mutant R175H) (Homo sapiens, UniProt P04637, R175H); experiment: CETSA in SK-BR-3 cells (Tm […] to […] °C at […]); assay type: cell-based
T1 construct: gene TP53; endogenous mutant p53 in SK-BR-3 cells

[1] = target: T2, p53 (mutant R248W DBD-derived peptide pR248W) (Homo sapiens, UniProt P04637, R248W); experiment: intrinsic tryptophan fluorescence quenching titration (also HSQC NMR on R248W DBD and CETSA in MIA PaCa-2 cells); assay type: binding
T2 construct: gene TP53

[2] = target: T2, p53 (mutant R248W DBD-derived peptide pR248W); experiment: intrinsic tryptophan fluorescence quenching titration (weak; no CETSA stabilization of R248W); assay type: binding
[3] = target: the molecule itself; experiment: thioflavin T (ThT) amyloid aggregation kinetics; 25 uM peptide alone in PBS with 50 uM ThT, shaking, 37 °C, fluorescence every 5 min; self-assembly into amyloid

Molecule: CCCCOc1nc(C(=O)Nc2ccc(C(=O)Nc3ccc(C(=O)OC)nc3OCCCN)nc2OCCCN)ccc1[N+](=O)[O-] [ADH-6]
- CETSA in SK-BR-3 cells (Tm 38.8 to 45.1 °C at 5 μM) (p53 (mutant R175H)): 45.1 ± 1.2 °C
- Kd [1]: 0.366 ± 0.013 µM

Molecule: COC(=O)c1ccc(NC(=O)c2ccc(NC(=O)c3ccc([N+](=O)[O-])c(OCC(=O)O)n3)c(OCc3ccccc3)n2)c(OCC(=O)O)n1 [ADH-1]
- Kd [2]: 15.4 ± 0.8 µM

B1: pWT, WT p53 DBD-derived peptide (residues 248-273) (peptide, UniProt P04637 248-273, looked up)
peptide: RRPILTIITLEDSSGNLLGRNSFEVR
notes: source: synthetic peptide (Selleck Chemicals, Fmoc; purified in house by reverse-phase HPLC)
- binding result [3]: binds
